Measured values as given in a melting point compilation (Tetko et al.; mined from patent text by program, amines drawn as free bases though some values may be those of a salt).

| melting point [°C] | Structure (SMILES) |
| --- | --- |
| 112 to 114 | COc1ccccc1N1CCN(c2cc3ccccc3cn2)CC1 |
| 120 to 121 | CCOC(=O)C1C(c2ccc(I)cc2)CC(=O)N1C (configuration not stated) |
| 135 to 136 | O=C(c1ccccc1)N1CCc2cc(Cl)ccc21 |
| 126 to 127 | CC(=O)c1cccc2nnsc12 |
| 168 to 170 | COc1ccccc1N1CCN(CCn2cnc3sc4c(c3c2=O)CCNC4)CC1 |
| 164 to 165 | COc1cc2nc(S(=O)Cc3cc(N(C)C)c(Cl)cn3)[nH]c2cc1OC (configuration not stated) |
| 198 | CC(O)C(=O)c1ccc(C(=O)Nc2ccccc2N)c(N)c1 (configuration not stated) |
| 145 to 147 | O=C(O)c1ccccc1OCCN1CCC(c2cn(CC3CC3)c3ccccc23)CC1 |
| 265 | Cc1cccc(C2(O)CCN(c3ccc(O)nn3)CC2)c1 |
| 125 to 126 | CCCCCCCNC(=O)N(C)c1cccc(-c2ccc(C=CC(=O)O)cc2)c1 |
| 101 to 103 | Cc1ccc(S(=O)(=O)OCC2Cc3cccc(-c4cccc(Cl)c4)c3O2)cc1 (configuration not stated) |
| 128 to 129 | S=c1[nH]ccn1OCc1cccnc1 |
| 241 to 243 | Cn1cc2c(O)cc(-c3ccccc3)nc2n1 |
| 120 to 123 | CCOC(=O)c1cc2c(C(=O)CN(Cc3ccccc3)C(C)CC(=O)OC)ccc(OCc3ccccc3)c2[nH]1 (configuration not stated) |
| 134 | CN1CC(=O)N(c2cc(Cl)nc(Cl)c2)C1=O |
| 226 to 230 | O=C(O)CCCCN1CCN2c3ccccc3Sc3ccccc3C2C1 (configuration not stated) |
| 112 to 114 | CC(=O)C(O)C1OC(n2cc(Br)c(=O)[nH]c2=O)CC1N=[N+]=[N-] (configuration not stated) |
| 116 to 118 | C#CCNC1(c2ccccc2)c2ccccc2Oc2ccccc21 |
| 64 to 65 | C=CCNc1nc(NCCCCC)c2scc(C)c2n1 |
| 112 to 114 | CC(=O)N1CCC(NC(=O)Nc2cccc(F)c2)CC1 |
| 240 to 242 | CC(=O)NC[C@H]1CN(c2ccc(C3CCN(S(C)(=O)=O)CC3)c(F)c2)C(=O)O1 |
| 141 to 142 | OCc1cn(-c2ccccc2)nc1-c1ccc(Cl)cc1 |
| 264 | O=C(O)CCCOc1cc(-c2ccccc2)nc2ccccc12 |
| 88.5 to 89.2 | CC(C)=CCCC(C)=CCOc1ccc(C(=O)NCCNc2cccnc2)cc1 |

| melting point [°C] | Structure (SMILES) |
| --- | --- |
| 191 to 192 | COC(=O)N1OCC(=Cc2cc(C(C)(C)C)c(O)c(C(C)(C)C)c2)C1=O |
| 160 | Cc1cccc2c1CC(n1ccnc1C(N)=O)C2=O (configuration not stated) |
| 98 to 101 | O=C1OC(COc2ccccc2)CN1Sc1ccc(Cl)cc1 (configuration not stated) |
| 142 to 143 | Cc1c(C)c2c(c(C)c1NC(=O)C(=O)C(C)(C)C)C(c1ccc(C(C)C)cc1)CO2 (configuration not stated) |
| 99 to 101 | CC1(C)C(=O)N(Cc2ccccc2Cl)OC1Nc1ccccc1 (configuration not stated) |
| 149 | O=C(c1ccc(F)cc1)C1CCN(CCCn2c(=S)[nH]c3ccccc32)CC1 |
| 220 to 237 | CC(C)C1(C)N=C(c2nc3occ([N+](=O)[O-])c3cc2C(=O)O)NC1=O (configuration not stated) |
| 175 | Cc1ccc(-c2cc(-c3ccccc3)n[nH]2)cc1 |
| 152 | COCC(=O)Nc1c(C(=O)CC(=O)Nc2nccs2)cccc1C(F)(F)F |
| 115 to 117 | OC(c1ccc(OCc2ccccc2)cc1)C(F)(F)F (configuration not stated) |
| 92 to 93 | COc1ccc2c(n1)c(CCNC(C)=O)c1n2CCCO1 |
| 77 to 80 | Fc1ccc(COc2ccc(CS)cc2)cc1 |
| 66 to 70 | CCCCCCCCCOP(=O)(CNC(=O)Nc1c(C(C)C)cccc1C(C)C)OCC (configuration not stated) |
| 37 to 39 | C#CCNC1CCc2ccc([N+](=O)[O-])cc21 (configuration not stated) |
| 87 to 90 | CCOC(=O)c1nc(-c2cccc(Br)c2)ns1 |
| 86 to 88 | CC(=O)SCC(C)C(=O)N(CC(=O)O)C1CC1 (configuration not stated) |
| 330 to 334 | Nc1nc(O)ncc1-c1cccc(Cl)c1Cl |
| 60.9 to 61.8 | CCCCc1cnc(-c2ccc(C#N)cc2)nc1 |
| 128 to 131 | Cc1cc(N(C)CC(=O)N2CCN(Cc3ccc4c(c3)OCO4)CC2)ccc1Oc1ccc(NC(=O)c2ccc(C(F)(F)F)cc2)cn1 |
| 89 to 91 | O=c1oc(-c2ccc(NS(=O)(=O)c3ccccc3)cc2)cc(O)c1SCCc1ccccc1 |
| 172 to 173 | COC(=O)c1cc(OC)c(O)cc1-c1c(C(=O)OC)ccc2c1OCO2 |
| 223 | O=C(c1ccccc1)c1nc2cc(C(c3ccccc3)n3ccnc3)ccc2[nH]1 (configuration not stated) |
| 118 to 120 | Fc1ccc(C=Nn2cncn2)cc1 |
| 237 to 240 | Cc1cc(C(C)(C)C)c(O)c(P(=O)(c2ccccc2)C2c3ccccc3-c3ccccc32)c1 (configuration not stated) |

| melting point [°C] | Structure (SMILES) |
| --- | --- |
| 245 to 246 | CC(C)(C)C(=O)OCCOCn1cnc2c(=O)[nH]c(N)nc21 |
| 190 to 191 | COc1ccccc1-n1c(=O)[nH]c2c(C(N)=O)nc(Nc3cccc(O)c3)nc21 |
| 91 to 93 | O=C1NC(=O)C(c2cn3c4c(cccc24)CCC3)C1c1ccc(OCc2ccccc2)cc1 (configuration not stated) |
| 99 to 100 | COC(=O)c1cc(N(CCO)CCO)c(S(C)(=O)=O)cc1[N+](=O)[O-] |
| 143 to 144 | CCCCCCCCCCCCOc1cccc2c(OCC(O)CO)cccc12 (configuration not stated) |
| 119 to 120 | Cc1c(C2=CCC(Cc3ccccc3)(N(C)C)CC2)[nH]c2ccc(C(F)(F)F)cc12 (configuration not stated) |
| 149 to 150 | Clc1ccc2nc(CBr)c(CBr)nc2c1 |
| 104 to 105 | N#Cc1ccccc1NC1CCN(Cc2ccccc2)CC1 |
| 187 to 188 | NC(=O)N1CC(Oc2ccc(Cl)cc2)C1 |
| 192 | CC(C)(C)OC(=O)[C@H]1CC[C@@H](c2ccccc2)N1C(=O)CNC(=O)Nc1cccc(OCC(=O)O)c1 (racemic) |
| 103 to 104 | CS(=O)c1ccc(OCc2ccccc2)c(C=O)c1 (configuration not stated) |
| 227 to 231 | Cn1c(COc2ccc(CC3SC(=O)NC3=O)cc2)nc2ccc(Oc3cccc(NC(=O)NC45CC6CC(CC(C6)C4)C5)c3)cc21 (configuration not stated) |
| 186 to 188 | CC(C)c1cccc(C(C)C)c1NC(=O)C1c2ccccc2COc2ccc([N+](=O)[O-])cc21 (configuration not stated) |
| 206 to 207 | O=C(O)COc1ccc(C2=CC(=O)CCC2C2CCCC2)c(Cl)c1Cl (configuration not stated) |
| 64.5 to 66 | CC(C)CCS(=O)C1=C(O)CC(C)(C)CC1=O (configuration not stated) |
| 156 to 157 | COCc1nc2c(NCc3c(C)cccc3C)cc(C(=O)N(C)C)cc2n1C |
| 90 to 92 | COC(=O)C1Cc2c([nH]c3ccccc23)C(c2ccc(Cl)c(Cl)c2)N1 (configuration not stated) |
| 131 | COC1=C(OC)C(=O)C(CCC(=O)N2CCC[C@H]2C(=O)O)=C(C)C1=O |
| 121 to 123 | CCc1nc2c(cnn2CC)c(NC2CCOCC2)c1CNC(=O)c1cc(C)cc(C(=O)NCc2ccc(OC)c(-c3cccc(CN4CCNC(C)C4)c3)c2)c1 (configuration not stated) |
| 130 to 131 | COc1ccc(N2CCCC2=O)cc1OC1CCCC1 |
| 111 to 113 | COc1ccc2c(c1)Sc1cc(OC)ccc1N2CCC#N |
| 140 to 141 | Cc1c(-c2ccccc2)[nH]c(N2CCCC2=O)c1C#N |

| Structure (SMILES) | melting point [°C] |
| --- | --- |
| CC(C)(C)[Si](C)(C)O[C@@H]1c2sccc2[C@]2(O[Si](C)(C)C(C)(C)C)C[C@H]1OC2=O | 133 to 137 |
| Cc1c(C2CCC(c3ccccc3)(N(C)C)CC2)[nH]c2ccc(F)cc12 (configuration not stated) | 199 to 205 |
